One block for each compound: values may come before it.
Key:
A498 [1] = test: GI50 of drug in presence of dasatinib; higher = less potent; conditions: treatment: drug + dasatinib (fixed dose, not stated); 5 days
Description: (§1)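 Primary HTS combination arm: 8 RCC cell lines treated with 8 doses (up to 10 uM) of each library drug plus a fixed dose of dasatinib (dose not stated) for 5 days; viability read by CellTiter-Glo and normalised to DMSO. GI50 was fitted with XLfit, AUC is the area under the dose-response curve, and minimum viability is the lowest fraction of DMSO viability across doses.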

CAKI-1 [2] = test: as above; conditions: treatment: drug + dasatinib (fixed dose, not stated); 5 days
Description: as §1

SN12C [3] = test: as above; conditions: treatment: drug + dasatinib (fixed dose, not stated); 5 days
Description: as §1

TK-10 [4] = test: as above; conditions: treatment: drug + dasatinib (fixed dose, not stated); 5 days
Description: as §1

UO-31 [5] = test: as above; conditions: treatment: drug + dasatinib (fixed dose, not stated); 5 days
Description: as §1

769-P [6] = test: minimum viability across doses, drug + dasatinib, relative to DMSO (fraction); higher = less growth inhibition; conditions: treatment: drug + dasatinib (fixed dose, not stated); 5 days
Description: as §1

786-O [7] = test: as above; conditions: treatment: drug + dasatinib (fixed dose, not stated); 5 days
Description: as §1

A498 [8] = test: as above; conditions: treatment: drug + dasatinib (fixed dose, not stated); 5 days
Description: as §1

ACHN [9] = test: as above; conditions: treatment: drug + dasatinib (fixed dose, not stated); 5 days
Description: as §1

CAKI-1 [10] = test: as above; conditions: treatment: drug + dasatinib (fixed dose, not stated); 5 days
Description: as §1

SN12C [11] = test: as above; conditions: treatment: drug + dasatinib (fixed dose, not stated); 5 days
Description: as §1

TK-10 [12] = test: as above; conditions: treatment: drug + dasatinib (fixed dose, not stated); 5 days
Description: as §1

UO-31 [13] = test: as above; conditions: treatment: drug + dasatinib (fixed dose, not stated); 5 days
Description: as §1

769-P [14] = test: AUC of dose-response viability curve, drug + dasatinib, normalised to DMSO (arbitrary (AUC of normalised viability)); higher = less growth inhibition; conditions: treatment: drug + dasatinib (fixed dose, not stated); 5 days
Description: as §1

786-O [15] = test: as above; conditions: treatment: drug + dasatinib (fixed dose, not stated); 5 days
Description: as §1

A498 [16] = test: as above; conditions: treatment: drug + dasatinib (fixed dose, not stated); 5 days
Description: as §1

ACHN [17] = test: as above; conditions: treatment: drug + dasatinib (fixed dose, not stated); 5 days
Description: as §1

CAKI-1 [18] = test: as above; conditions: treatment: drug + dasatinib (fixed dose, not stated); 5 days
Description: as §1

SN12C [19] = test: as above; conditions: treatment: drug + dasatinib (fixed dose, not stated); 5 days
Description: as §1

TK-10 [20] = test: as above; conditions: treatment: drug + dasatinib (fixed dose, not stated); 5 days
Description: as §1

UO-31 [21] = test: as above; conditions: treatment: drug + dasatinib (fixed dose, not stated); 5 days
Description: as §1

769-P [22] = test: GI50, drug alone; higher = less potent; conditions: treatment: drug alone; 5 days
Description: as §1, with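 “HTS:” for “HTS combination arm:”, “alone” for “plus a fixed dose of dasatinib (dose not stated)”, “XLfit (4-parameter),” for “XLfit,”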

786-O [23] = test: GI50, drug alone; higher = less potent; conditions: treatment: drug alone; 5 days
Description: as §1, with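 “HTS:” for “HTS combination arm:”, “alone” for “plus a fixed dose of dasatinib (dose not stated)”, “XLfit (4-parameter),” for “XLfit,”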

A498 [24] = test: GI50, drug alone; higher = less potent; conditions: treatment: drug alone; 5 days
Description: as §1, with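 “HTS:” for “HTS combination arm:”, “alone” for “plus a fixed dose of dasatinib (dose not stated)”, “XLfit (4-parameter),” for “XLfit,”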

ACHN [25] = test: GI50, drug alone; higher = less potent; conditions: treatment: drug alone; 5 days
Description: as §1, with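 “HTS:” for “HTS combination arm:”, “alone” for “plus a fixed dose of dasatinib (dose not stated)”, “XLfit (4-parameter),” for “XLfit,”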

CAKI-1 [26] = test: GI50, drug alone; higher = less potent; conditions: treatment: drug alone; 5 days
Description: as §1, with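 “HTS:” for “HTS combination arm:”, “alone” for “plus a fixed dose of dasatinib (dose not stated)”, “XLfit (4-parameter),” for “XLfit,”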

SN12C [27] = test: GI50, drug alone; higher = less potent; conditions: treatment: drug alone; 5 days
Description: as §1, with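 “HTS:” for “HTS combination arm:”, “alone” for “plus a fixed dose of dasatinib (dose not stated)”, “XLfit (4-parameter),” for “XLfit,”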

TK-10 [28] = test: GI50, drug alone; higher = less potent; conditions: treatment: drug alone; 5 days
Description: as §1, with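 “HTS:” for “HTS combination arm:”, “alone” for “plus a fixed dose of dasatinib (dose not stated)”, “XLfit (4-parameter),” for “XLfit,”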

UO-31 [29] = test: GI50, drug alone; higher = less potent; conditions: treatment: drug alone; 5 days
Description: as §1, with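 “HTS:” for “HTS combination arm:”, “alone” for “plus a fixed dose of dasatinib (dose not stated)”, “XLfit (4-parameter),” for “XLfit,”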

769-P [30] = test: minimum viability across doses, drug alone, relative to DMSO (fraction); higher = less growth inhibition; conditions: treatment: drug alone; 5 days
Description: as §1, with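 “HTS:” for “HTS combination arm:”, “alone” for “plus a fixed dose of dasatinib (dose not stated)”, “XLfit (4-parameter),” for “XLfit,”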

786-O [31] = test: as above; conditions: treatment: drug alone; 5 days
Description: as §1, with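 “HTS:” for “HTS combination arm:”, “alone” for “plus a fixed dose of dasatinib (dose not stated)”, “XLfit (4-parameter),” for “XLfit,”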

A498 [32] = test: as above; conditions: treatment: drug alone; 5 days
Description: as §1, with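 “HTS:” for “HTS combination arm:”, “alone” for “plus a fixed dose of dasatinib (dose not stated)”, “XLfit (4-parameter),” for “XLfit,”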

ACHN [33] = test: as above; conditions: treatment: drug alone; 5 days
Description: as §1, with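 “HTS:” for “HTS combination arm:”, “alone” for “plus a fixed dose of dasatinib (dose not stated)”, “XLfit (4-parameter),” for “XLfit,”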

CAKI-1 [34] = test: as above; conditions: treatment: drug alone; 5 days
Description: as §1, with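 “HTS:” for “HTS combination arm:”, “alone” for “plus a fixed dose of dasatinib (dose not stated)”, “XLfit (4-parameter),” for “XLfit,”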

SN12C [35] = test: as above; conditions: treatment: drug alone; 5 days
Description: as §1, with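 “HTS:” for “HTS combination arm:”, “alone” for “plus a fixed dose of dasatinib (dose not stated)”, “XLfit (4-parameter),” for “XLfit,”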

TK-10 [36] = test: as above; conditions: treatment: drug alone; 5 days
Description: as §1, with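 “HTS:” for “HTS combination arm:”, “alone” for “plus a fixed dose of dasatinib (dose not stated)”, “XLfit (4-parameter),” for “XLfit,”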

UO-31 [37] = test: as above; conditions: treatment: drug alone; 5 days
Description: as §1, with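 “HTS:” for “HTS combination arm:”, “alone” for “plus a fixed dose of dasatinib (dose not stated)”, “XLfit (4-parameter),” for “XLfit,”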

769-P [38] = test: AUC of dose-response viability curve, drug alone (arbitrary (AUC of normalised viability)); higher = less growth inhibition; conditions: treatment: drug alone; 5 days
Description: as §1, with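 “HTS:” for “HTS combination arm:”, “alone” for “plus a fixed dose of dasatinib (dose not stated)”, “XLfit (4-parameter),” for “XLfit,”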

786-O [39] = test: as above; conditions: treatment: drug alone; 5 days
Description: as §1, with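 “HTS:” for “HTS combination arm:”, “alone” for “plus a fixed dose of dasatinib (dose not stated)”, “XLfit (4-parameter),” for “XLfit,”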

A498 [40] = test: as above; conditions: treatment: drug alone; 5 days
Description: as §1, with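 “HTS:” for “HTS combination arm:”, “alone” for “plus a fixed dose of dasatinib (dose not stated)”, “XLfit (4-parameter),” for “XLfit,”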

ACHN [41] = test: as above; conditions: treatment: drug alone; 5 days
Description: as §1, with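 “HTS:” for “HTS combination arm:”, “alone” for “plus a fixed dose of dasatinib (dose not stated)”, “XLfit (4-parameter),” for “XLfit,”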

CAKI-1 [42] = test: as above; conditions: treatment: drug alone; 5 days
Description: as §1, with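 “HTS:” for “HTS combination arm:”, “alone” for “plus a fixed dose of dasatinib (dose not stated)”, “XLfit (4-parameter),” for “XLfit,”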

SN12C [43] = test: as above; conditions: treatment: drug alone; 5 days
Description: as §1, with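 “HTS:” for “HTS combination arm:”, “alone” for “plus a fixed dose of dasatinib (dose not stated)”, “XLfit (4-parameter),” for “XLfit,”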

TK-10 [44] = test: as above; conditions: treatment: drug alone; 5 days
Description: as §1, with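 “HTS:” for “HTS combination arm:”, “alone” for “plus a fixed dose of dasatinib (dose not stated)”, “XLfit (4-parameter),” for “XLfit,”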

UO-31 [45] = test: as above; conditions: treatment: drug alone; 5 days
Description: as §1, with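 “HTS:” for “HTS combination arm:”, “alone” for “plus a fixed dose of dasatinib (dose not stated)”, “XLfit (4-parameter),” for “XLfit,”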

SMILES: Cc1cc(C(C)Nc2ccccc2)c2nc(N3CCOCC3)cc(=O)n2c1 (centres undefined) [TGX-221] + Cc1nc(Nc2ncc(C(=O)Nc3c(C)cccc3Cl)s2)cc(N2CCN(CCO)CC2)n1 [dasatinib]
GI50 of drug (A498 [1]): > 10 µM
GI50 of drug (CAKI-1 [2]): 0.231 µM
GI50 of drug (SN12C [3]): > 10 µM
GI50 of drug (TK-10 [4]): > 10 µM
GI50 of drug (UO-31 [5]): 4.86 µM
minimum viability across doses (769-P [6]): 0.346
minimum viability across doses (786-O [7]): 0.299
minimum viability across doses (A498 [8]): 0.949
minimum viability across doses (ACHN [9]): 0.424
minimum viability across doses (CAKI-1 [10]): 0.281
minimum viability across doses (SN12C [11]): 0.624
minimum viability across doses (TK-10 [12]): 0.554
minimum viability across doses (UO-31 [13]): 0.349
AUC of dose-response viability curve (769-P [14]): 2.01
AUC of dose-response viability curve (786-O [15]): 2.04
AUC of dose-response viability curve (A498 [16]): 3.6
AUC of dose-response viability curve (ACHN [17]): 1.82
AUC of dose-response viability curve (CAKI-1 [18]): 1.83
AUC of dose-response viability curve (SN12C [19]): 2.4
AUC of dose-response viability curve (TK-10 [20]): 2.35
AUC of dose-response viability curve (UO-31 [21]): 3.16

GI50, drug alone (786-O [23]): > 10 µM
GI50, drug alone (ACHN [25]): > 10 µM
SMILES: Cc1ccc(S(=O)(=O)Nc2nc3ccccc3nc2Nc2ccc3nsnc3c2)cc1 [XL147]
GI50, drug alone (769-P [22]): > 10 µM
GI50, drug alone (A498 [24]): > 10 µM
GI50, drug alone (CAKI-1 [26]): > 10 µM
GI50, drug alone (SN12C [27]): > 10 µM
GI50, drug alone (TK-10 [28]): > 10 µM
GI50, drug alone (UO-31 [29]): > 10 µM
minimum viability across doses (769-P [30]): 0.884
minimum viability across doses (786-O [31]): 0.768
minimum viability across doses (A498 [32]): 0.933
minimum viability across doses (ACHN [33]): 0.811
minimum viability across doses (CAKI-1 [34]): 1.03
minimum viability across doses (SN12C [35]): 0.92
minimum viability across doses (TK-10 [36]): 0.902
minimum viability across doses (UO-31 [37]): 1.13
AUC of dose-response viability curve (769-P [38]): 3.3
AUC of dose-response viability curve (786-O [39]): 3.2
AUC of dose-response viability curve (A498 [40]): 3.61
AUC of dose-response viability curve (ACHN [41]): 3.19
AUC of dose-response viability curve (CAKI-1 [42]): 3.82
AUC of dose-response viability curve (SN12C [43]): 3.52
AUC of dose-response viability curve (TK-10 [44]): 3.52
AUC of dose-response viability curve (UO-31 [45]): 4.38

GI50, drug alone (786-O [23]): 5.69 µM
GI50, drug alone (ACHN [25]): 1.34 µM
SMILES: COc1cc2nccc(Oc3ccc(NC(=O)C4(C(=O)Nc5ccc(F)cc5)CC4)cc3)c2cc1OC [XL-184 free base (Cabozantinib)]
GI50, drug alone (769-P [22]): > 10 µM
GI50, drug alone (A498 [24]): > 10 µM
GI50, drug alone (CAKI-1 [26]): 4.71 µM
GI50, drug alone (SN12C [27]): 5.27 µM
GI50, drug alone (TK-10 [28]): 4.14 µM
GI50, drug alone (UO-31 [29]): > 10 µM
minimum viability across doses (769-P [30]): 0.557
minimum viability across doses (786-O [31]): 0.222
minimum viability across doses (A498 [32]): 0.805
minimum viability across doses (ACHN [33]): 0.221
minimum viability across doses (CAKI-1 [34]): 0.116
minimum viability across doses (SN12C [35]): 0.279
minimum viability across doses (TK-10 [36]): 0.102
minimum viability across doses (UO-31 [37]): 0.675
AUC of dose-response viability curve (769-P [38]): 3.39
AUC of dose-response viability curve (786-O [39]): 3.06
AUC of dose-response viability curve (A498 [40]): 3.95
AUC of dose-response viability curve (ACHN [41]): 2.25
AUC of dose-response viability curve (CAKI-1 [42]): 3.2
AUC of dose-response viability curve (SN12C [43]): 2.92
AUC of dose-response viability curve (TK-10 [44]): 2.91
AUC of dose-response viability curve (UO-31 [45]): 3.88

— the supplement of paper PMC8149375
